Article PMC11198849, “Expression and purification of human neutrophil proteinase 3 from insect cells and characterization of ligand binding” (PLOS ONE, 2024)
Where “and” joins values, the source holds several entries; their conditions need not be identical. Equal values may be shown once. Read-outs that look alike come from different tables or passages of the source.

Key:
hNE = target: T1, hNE (Homo sapiens, UniProt P08246); assay: Fluorescence-based enzymatic activity assay with hNE (MeOSuc-AAPV-AMC substrate); assay type: biochemical; details: for %Relative activity of enzyme: hNE, Rep1-Rep3
T1 construct: Enzymes purified from human neutrophiles (hPR3 and hNE); purchased Athens Research and Technology; host or cells: human neutrophils
T1 sequence (P08246 30-247 limits assumed): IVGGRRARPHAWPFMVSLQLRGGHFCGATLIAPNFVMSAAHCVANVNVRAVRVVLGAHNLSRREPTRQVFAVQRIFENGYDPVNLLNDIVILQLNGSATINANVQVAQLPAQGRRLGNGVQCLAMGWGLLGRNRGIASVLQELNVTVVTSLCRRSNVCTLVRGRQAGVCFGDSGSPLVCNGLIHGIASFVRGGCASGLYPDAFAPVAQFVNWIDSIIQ
Procedure: The reaction was started by adding the fluorogenic substrate (MeOSuc-AAPV-AMC) at a final concentration of 5 μM. The fluorescent signal (excitation filter 360, emission filter 460) was read as described above for PR3.
(§1) Data were fitted using nonlinear regression analysis (GraphPad Prism v.9) to determine the IC50 values.

rPR3 [1] = target: T2, rPR3 (Homo sapiens, UniProt P24158); assay: SPR binding assay on biotinylated rPR3; details: for SPR binding behaviour towards rPR3 (in words): sensorgrams Fig 5
T2 construct: TEV cleavage site (C); 6x His-tag (C); made in house; host or cells: Spodoptera frugiperda Sf9 (baculovirus), secreted
T2 sequence (P24158 28-248 limits assumed): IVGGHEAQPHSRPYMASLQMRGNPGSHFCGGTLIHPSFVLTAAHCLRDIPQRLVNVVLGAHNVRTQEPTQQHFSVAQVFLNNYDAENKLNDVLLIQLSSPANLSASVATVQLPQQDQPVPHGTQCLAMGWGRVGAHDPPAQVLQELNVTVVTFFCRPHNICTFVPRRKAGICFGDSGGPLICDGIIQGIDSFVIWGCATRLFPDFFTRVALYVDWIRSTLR

hPR3 = target: T3, hPR3 (Homo sapiens, UniProt P24158); assay: Fluorescence-based enzymatic activity assay with hPR3 (FRET peptide Abz-VADnVADYQ-EDDnp); assay type: biochemical
T3 construct: Enzymes purified from human neutrophiles (hPR3 and hNE); purchased Athens Research and Technology; host or cells: human neutrophils
T3 sequence (P24158 28-248 limits assumed): T2 sequence (P24158 28-248 limits assumed)
Procedure: (§2) The reaction was started by adding the FRET peptide (Abz-VADnVADYQ-EDDnp) at a final concentration of 5 μM. The fluorescent signal (excitation filter 320, emission filter 420) was read every 30 s for 30 min at 30°C with a fluorescent plate reader (Tecan Spark) and the enzymatic activity was measured from the initial linear portion of the slope (fluorescent signal/min) of the time-course curve of reaction progress.
as §1

rPR3 [2] = target: T2, rPR3; assay: Fluorescence-based enzymatic activity assay with rPR3 (FRET peptide Abz-VADnVADYQ-EDDnp); assay type: biochemical
Procedure: as §2, §1

[3] = target: α1-antitrypsin (Homo sapiens) (UniProt P01009); details: cited from earlier work
Sequence of α1-antitrypsin (Homo sapiens) (P01009 25-418): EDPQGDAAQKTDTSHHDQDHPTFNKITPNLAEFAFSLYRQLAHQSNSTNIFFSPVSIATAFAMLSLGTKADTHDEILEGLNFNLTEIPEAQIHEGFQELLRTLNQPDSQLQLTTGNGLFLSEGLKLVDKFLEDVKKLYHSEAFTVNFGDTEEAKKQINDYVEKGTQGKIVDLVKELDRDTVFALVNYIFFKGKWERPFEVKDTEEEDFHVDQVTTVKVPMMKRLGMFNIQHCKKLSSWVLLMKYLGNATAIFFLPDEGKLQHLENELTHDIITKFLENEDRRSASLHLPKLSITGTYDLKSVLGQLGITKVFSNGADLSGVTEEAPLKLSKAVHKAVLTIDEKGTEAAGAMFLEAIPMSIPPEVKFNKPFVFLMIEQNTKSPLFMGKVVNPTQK

PR3 = details: cited from earlier work
[4] = affinity data, single replicates Rep1-Rep3, read-out: Steady state KD
[5] = steady state, average and SD of triplicates, read-out: Steady state KD
[6] = IC50 replicates Rep1-Rep3, read-out: hPR3 IC50
[7] = mean ± SD (n = 3), read-out: IC50 hPR3
[8] = IC50 replicates Rep1-Rep3, read-out: rPR3 IC50
[9] = mean ± SD (n = 3), read-out: IC50 rPR3

Row | Compound | SPR binding behaviour towards rPR3 (in words) (rPR3 [1]) | IC50 (hPR3; [6]) | IC50 (hPR3; [7]) | IC50 (rPR3 [2]; [8]) | IC50 (rPR3 [2]; [9]) | Kd (rPR3 [1]; [4]) | Kd (rPR3 [1]; [5]) | also measured
1 | Cc1c(-c2ccnn2C)cc(C(=O)NCc2ccc(S(C)(=O)=O)cn2)c(=O)n1-c1cccc(C(F)(F)F)c1 [Alvelestat] | weak rPR3 binder with fast association and dissociation rates | – | – | – | – | 1.95e-05 M and 1.26e-05 M and 8.36e-06 M | 1.35e-05 ± 5.6e-06 M | IC50 (hNE; IC50 replicates Rep1-Rep3): 10.7 nM and 12.1 nM and 11.6 nM; %Relative activity of enzyme (hNE; inhibitor 1.95 nM): 78.8834% and 84.934% and 85.1448%; %Relative activity of enzyme (hNE; inhibitor 3.9 nM): 78.3028% and 76.8727%; %Relative activity of enzyme (hNE; inhibitor 7.8 nM): 61.4733% and 58.7939% and 60.1294%; %Relative activity of enzyme (hNE; inhibitor 15.6 nM): 40.7947% and 40.9606% and 39.7611%; %Relative activity of enzyme (hNE; inhibitor 31.25 nM): 27.1224% and 29.7155% and 27.7611%; %Relative activity of enzyme (hNE; inhibitor 62.5 nM): 15.0503% and 20.2323% and 16.5108%; %Relative activity of enzyme (hNE; inhibitor 125 nM): 9.7027% and 8.522% and 9.4691%
2 | Proteinase 3 (from UniProt P24158) | – | – | – | – | – | – | – | Ki [3]: 38 nM

More lines, main results first:

Row | SPR binding behaviour towards rPR3 (in words) (rPR3 [1]) | IC50 (hPR3; [6]) | IC50 (hPR3; [7]) | IC50 (rPR3 [2]; [8]) | IC50 (rPR3 [2]; [9]) | Compound | Kd (rPR3 [1]; [4]) | Kd (rPR3 [1]; [5]) | also measured
3 | – | 24.3 nM and 24.7 nM and 31.5 nM | 27 ± 4 nM | 67.7 nM and 55 nM and 53.6 nM | 59 ± 8 nM | CC1=C(C#N)[C@@H](c2ccc(C#N)cc2S(C)(=O)=O)N(C)C(=O)N1c1cccc(C(F)(F)F)c1 [BAY-85-8501] | 2.6e-08 M and 4.4e-08 M and 1.6e-08 M | 3e-08 ± 1e-08 M | Ki (rPR3 [2]; Cheng-Prusoff equation, literature Km 27.4 μM, read-out: Ki derived from the IC50 value): 50 nM; Kd (rPR3 [1]; 1:1 binding kinetic model, average and SD of triplicates, read-out: KD): 1.4e-08 M; Kd (rPR3 [1]; affinity data, average of Rep1-Rep3, read-out: Steady state KD (M), Average): 2.87e-08 M; Kd (rPR3 [1]; average of Rep1-Rep3, read-out: KD (M), kinetics 1:1, Average): 1.37e-08 M; Kd (rPR3 [1]; single replicates Rep1-Rep3, read-out: KD (M), kinetics 1:1): 1.37e-08 M and 1.09e-08 M and 1.66e-08 M
4 | hardly dissociated | 33.6 nM and 34.1 nM and 30.4 nM | 33 ± 2 nM | 35.8 nM and 29.5 nM and 30.1 nM | 32 ± 4 nM | CC(C)(C)C(=O)Oc1ccc(S(=O)(=O)Nc2ccccc2C(=O)NCC(=O)O)cc1 [Sivelestat] | – | – | –
5 | hardly dissociated | – | 15 ± 1 nM | – | 14 ± 1 nM | α1-antitrypsin: endogenous serine protease inhibitor, also denoted SERPIN; purchased from Sigma-Aldrich | – | – | IC50 (hPR3; IC50 replicates Rep1-Rep3, listed as a1-antitrypsin, read-out: hPR3 IC50): 15.8 nM and 15.5 nM and 14.6 nM; IC50 (rPR3 [2]; IC50 replicates Rep1-Rep3, listed as a1-antitrypsin, read-out: rPR3 IC50): 15.3 nM and 14.7 nM and 13.5 nM; first-order rate constant k2 (EI* to irreversible EI) (PR3): 0.04 s⁻¹
